Assay results reported in patent publication US20110217715A1, “GENE EXPRESSION IN DUCHENNE MUSCULAR DYSTROPHY” (CHILDREN'S HOSPITAL MEDICAL CENTER, priority 2008, published 2011).

System: mRNA expression in peripheral blood of individuals with DMD
Experiment: Whole-blood gene expression microarray: DMD administered deflazacort vs DMD administered prednisone
Type: in vivo, human
Conditions: for p-value / p-value (t-test, deflazacort vs. prednisone) / p-value (t-test, deflazacort vs prednisone): deflazacort vs. prednisone
Protocol: Fifteen ml of blood was collected from each individual into 6 PAXgene® Vacutainer® tubes (PreAnalytiX, Germany) by antecubital fossa venipuncture. PAXgene® tubes contain a proprietary reagent that immediately stabilizes RNA, thus reducing RNA degradation and minimizing gene expression changes following phlebotomy. The tubes were then inverted 20 times, then remained undisturbed for 2 h at room temperature (about 19° C. to about 22° C.), and then stored at -70° C. until processed. Total RNA was isolated using the Paxgene® blood RNA kit (PreAnalytiX, Germany) according to the manufacturers instructions. The RNA isolated is from all cells in whole blood. Typical yields of total RNA isolated from about 7.5 ml of human whole blood were between 10 μg RNA and 40 μg RNA. RNA quality and purity was analyzed by spectrophotometry using the Nanodrop ND-1000, and RNA integrity was analyzed using the Agilent 2100 Bioanalyzer. […] Sample labeling, hybridization to chips, and image scanning were performed using standard Affymetrix protocols. For each whole blood sample from control individuals and individuals with DMD, total RNA was labeled using the One-Cycle Target Labeling protocol and hybridized to the arrays. […] Double-stranded cDNA synthesis, biotin-labeled cRNA synthesis, and cRNA fragmentation were performed according to the Affymetrix GeneChip Eukaryotic Expression Analysis protocol. The labeled, fragmented cRNA (15 μg) was hybridized at 45° C. overnight. After hybridization, the array was washed and stained. The arrays were scanned with an argon-ion laser at λ=570 nm, with a resolution of 3 μm/pixel (Affymetrix, Inc.). After scanning the array, the raw probe level values for each probe were saved in Affymetrix.cel files. […] Statistical analyses, including t-test analyses, unsupervised hierarchical clustering, and principal component analyses were conducted using Genespring 7.2 software ([…]® 7, Silicon Genetics, Redwood City Calif.). […] Corrections for multiple comparisons used a Benjamini-Hochberg False Discovery Rate (FDR) of 0.05, disclosed in Tang et al., J Cereb Blood Flow Metab 26 (2006) 1089, which is expressly incorporated by reference herein in its entirety. […] Sample processing and array hybridization, probe-level data analysis, and statistical analysis were identical to Example 1.

For `CC(=O)OCC(=O)[C@@]12N=C(C)O[C@@H]1C[C@H]1[C@@H]3CCC4=CC(=O)C=C[C@]4(C)[C@H]3[C@@H](O)C[C@@]12C` [deflazacort], the “expression of retinoic acid receptor α (RARa)” value (deflazacort compared to prednisone, blood) was “significantly up-regulated”, the p-value (AA100891, Nucleic Acid No. 2100) was 0.0498 and the p-value (AA534416, Nucleic Acid No. 2105) was 0.0123. The “p-value (t-test, deflazacort vs. prednisone)” value (AA679303, Nucleic Acid No. 2067) was 0.0185, the p-value (AA702409, Nucleic Acid No. 2116) was 0.0453 and the “p-value (t-test, deflazacort vs. prednisone)” value (AA789296, Nucleic Acid No. 2010) was 0.0291. For the same molecule, the “p-value (t-test, deflazacort vs. prednisone)” value (AA830854, Nucleic Acid No. 1325) was 0.0452, the “p-value (t-test, deflazacort vs prednisone)” value (AB023216, Nucleic Acid No. 2081) was 0.00521 and the “p-value (t-test, deflazacort vs prednisone)” value (AB033106, Nucleic Acid No. 2083) was 0.0446. For the same molecule, the p-value (AF005774, Nucleic Acid No. 1945) was 0.0104, the p-value (AF009616, Nucleic Acid No. 1950) was 0.0293 and the p-value (AF009619, Nucleic Acid No. 1943) was 0.0064. For the same molecule, the p-value (AF015451, Nucleic Acid No. 1946) was 0.0107, the p-value (AF041459, Nucleic Acid No. 1944) was 0.00822 and the p-value (AF041461, Nucleic Acid No. 1947) was 0.013. The p-value (AF075067, Nucleic Acid No. 2112) was 0.0376, the p-value (AF083208, Nucleic Acid No. 1892) was 0.00348 and the “p-value (t-test, deflazacort vs prednisone)” value (AF098114, Nucleic Acid No. 2069) was 0.0202. For the same molecule, the p-value (AF147300, Nucleic Acid No. 1995) was 0.0271, the “p-value (t-test, deflazacort vs prednisone)” value (AF207547, Nucleic Acid No. 2088) was 0.00744 and the p-value (AF285167, Nucleic Acid No. 1894) was 0.0117. For the same molecule, the p-value (AF313468, Nucleic Acid No. 1956) was 0.0435, the p-value (AF400600, Nucleic Acid No. 1955) was 0.0263 and the p-value (AF400602, Nucleic Acid No. 1954) was 0.0148. The “p-value (t-test, deflazacort vs prednisone)” value (AF499918, Nucleic Acid No. 2091) was 0.0369, the “p-value (t-test, deflazacort vs. prednisone)” value (AI017983, Nucleic Acid No. 1338) was 0.0323 and the “p-value (t-test, deflazacort vs. prednisone)” value (AI056689, Nucleic Acid No. 2031) was 0.043. For the same molecule, the “p-value (t-test, deflazacort vs prednisone)” value (AI080505, Nucleic Acid No. 2099) was 0.0412, the p-value (AI091372, Nucleic Acid No. 1918) was 0.00592 and the p-value (AI093231, Nucleic Acid No. 1906) was 0.0085. For the same molecule, the “p-value (t-test, deflazacort vs. prednisone)” value (AI250910, Nucleic Acid No. 2014) was 0.0029, the p-value (AI342146, Nucleic Acid No. 1905) was 0.048 and the “p-value (t-test, deflazacort vs. prednisone)” value (AI393727, Nucleic Acid No. 2034) was 0.0345. The p-value (AI436803, Nucleic Acid No. 1916) was 0.00828, the “p-value (t-test, deflazacort vs prednisone)” value (AI535735, Nucleic Acid No. 2089) was 0.0426 and the “p-value (t-test, deflazacort vs. prednisone)” value (AI608725, Nucleic Acid No. 2053) was 6.16E−05. The p-value (AI651726, Nucleic Acid No. 2119) was 0.0107, the p-value (AI670862, Nucleic Acid No. 2017) was 0.0109 and the “p-value (t-test, deflazacort vs. prednisone)” value (AI719730, Nucleic Acid No. 2039) was 0.00281. For the same molecule, the p-value (AI762695, Nucleic Acid No. 1996) was 0.032, the p-value (AI768497, Nucleic Acid No. 1910) was 0.0137 and the “p-value (t-test, deflazacort vs prednisone)” value (AI814925, Nucleic Acid No. 2072) was 0.0422. For the same molecule, the “p-value (t-test, deflazacort vs prednisone)” value (AI830331, Nucleic Acid No. 2075) was 0.0149, the “p-value (t-test, deflazacort vs. prednisone)” value (AI830490, Nucleic Acid No. 2028) was 0.0146 and the p-value (AI860150, Nucleic Acid No. 2018) was 0.026. The p-value (AI862537, Nucleic Acid No. 2118) was 0.0333, the “p-value (t-test, deflazacort vs. prednisone)” value (AI868267, Nucleic Acid No. 1444) was 0.0285 and the “p-value (t-test, deflazacort vs. prednisone)” value (AI906424, Nucleic Acid No. 2044) was 0.0287. For the same molecule, the “p-value (t-test, deflazacort vs. prednisone)” value (AI926544, Nucleic Acid No. 2054) was 0.0136, the p-value (AI985590, Nucleic Acid No. 1901) was 0.0389 and the p-value (AJ422148, Nucleic Acid No. 2104) was 0.026. The p-value (AK000119, Nucleic Acid No. 2121) was 0.0375, the “p-value (t-test, deflazacort vs. prednisone)” value (AK023348, Nucleic Acid No. 2037) was 0.0274 and the p-value (AK024677, Nucleic Acid No. 1915) was 0.00386. The “p-value (t-test, deflazacort vs. prednisone)” value (AK024911, Nucleic Acid No. 2045) was 0.0429, the p-value (AK025217, Nucleic Acid No. 1997) was 0.0404 and the “p-value (t-test, deflazacort vs. prednisone)” value (AK074686, Nucleic Acid No. 2042) was 0.0406. For the same molecule, the p-value (AK090660, Nucleic Acid No. 2080) was 0.0288, the “p-value (t-test, deflazacort vs. prednisone)” value (AK092709, Nucleic Acid No. 2013) was 0.0392 and the p-value (AL021977, Nucleic Acid No. 2110) was 0.0121. For the same molecule, the p-value (AL049250, Nucleic Acid No. 2101) was 0.0486, the “p-value (t-test, deflazacort vs. prednisone)” value (AL049273, Nucleic Acid No. 1402) was 0.0448 and the “p-value (t-test, deflazacort vs prednisone)” value (AL137645, Nucleic Acid No. 906) was 0.0416. The “p-value (t-test, deflazacort vs. prednisone)” value (AL832727, Nucleic Acid No. 2022) was 0.0334, the p-value (AL833448, Nucleic Acid No. 2084) was 0.0326 and the p-value (AU145206, Nucleic Acid No. 1909) was 0.046. The p-value (AU158358, Nucleic Acid No. 1897) was 0.0325.
